Experimental data taken from US11135224B2, “Methods of sensitizing estrogen receptor positive (ER+) breast cancer cells to endocrine therapy” (New York University, priority 2018, dated 2021).

What was measured:
p38, JNK1, and RSKs = settings: at 10 μM; cited from earlier work
[1] = system: ATF2 phosphorylation at Thr69/71 (target of RSK, JNK1, p38 MAPK) and eIF4B S422 (target of RSKs); assay: Immunoblot of ATF2 and eIF4B phosphorylation in TamR cells; assay type: cell-based, human; settings: 10 μM for 6 hours
Method: (§1) Hsp70 (loading control). […] Cells were treated with DMSO, 1 μM 4-OH Tam, 4-OH Tam and CGP 57380 (10 μM), or 1 μM 4-OH Tam, CGP57380, and 20 nM RAD001 therapies 24 hours after plating. Treatment was changed every 72 hours. Colonies were scored after 10 days counting only >50 cells/colony. Results are representative of three independent experiments. SEM is shown. […] Results from three independent experiments. Error bars represent SEM (n.s.=not significant). […] Equal amounts of RNA were resolved by sucrose gradient centrifugation and ribosome profiles monitored by UV absorbance 254 nm. Results are representative images of two independent experiments.
Immunoblot Studies: In brief, cells were lysed in NP-40 buffer (50 mM HEPES, pH 7.0, 150 mM NaCl, 2 mM EDTA, 25 mM NaF, 25 mM β-glycerophosphate, 2 mM Na3VO4, 1% IGEPAL, and Complete Mini protease inhibitor cocktail tablet+/−EDTA; Roche) or RIPA lysis buffer (1% Triton X-100, 1% sodium deoxycholate, 0.1% SDS, 150 mM NaCl, 50 mM Tris, pH 7.4, 2 mM Na3VO4, 25 mM β-glycerophosphate, 15 mM NaF, and complete protease inhibitor mix; Roche) and lysate cleared by centrifugation at 13,000 rpm for 10 minutes at 4° C. Lysate protein concentration was determined for each sample using BCA assay. […] Quantitation was performed by determination of the integrated density of the bands using ImageJ software. […]

[2] = system: global protein synthesis in TamS and TamR cells; assay: [35S]-methionine metabolic labeling, overall protein synthesis; assay type: cell-based, human; settings: 10 μM for 24 hours, [35S]-methionine labeling 30 minutes
Method: as §1
^35S-Methionine Metabolic Protein Labeling: Global protein synthesis was measured as previously described (Ramirez-Valle et al., “eIF4GI Links Nutrient Sensing by mTOR to Cell Proliferation and Inhibition of Autophagy,” J. Cell Biol. 181(2):293-307 (2008), which is incorporated herein by reference in its entirety). Cells (2×10^5) were seeded, in triplicate, into 6-well culture plates and allowed to adhere for 48-72 hours. Cells were labeled with 25 μCi ^355-methionine/cysteine protein labeling mix (PerkinElmer) for 30 minutes at 37° C. using DMEM without L-Methionine or L-Cysteine supplemented with 5% FBS. […] Protein concentration was measured by the BCA assay (Thermo Scientific). […]

## Nc1ncnc2n[nH]c(Nc3ccc(F)cc3)c12 [CGP57380]
p38, JNK1, and RSKs
  inhibitory activity on other families of related kinases (p38, JNK1, and RSKs): no inhibitory activity
[1]
  phosphorylation of ATF2 Thr69/71 and eIF4B S422: no change in phosphorylation
[2]
  reduction in global protein synthesis: 10%
